Experimental data taken from US5132463A, “1,3-diaryl cyclopentanes and derivatives thereof as PAF antagonists” (Merck & Co., Inc., priority 1991, dated 1992).
“And” between values parts separate entries of the source, which are not always exact repeats. Equal values may be shown once.

Each compound was assayed against T1, PAF receptor (specific receptor binding site on rabbit platelet plasma membranes) (Oryctolagus cuniculus, UniProt G1TEI7) (assay: inhibition of 3H-PAF binding to rabbit platelet plasma membrane). Conditions: Table (A), 3H-PAF, pH 7.5, 0° C.
T1 construct: 100 μg of the platelet plasma membrane suspension; from tissue; host or cells: rabbit platelet plasma membranes
Experimental: They inhibit in vitro PAF-induced functions in both the cellular and tissue levels by changing the PAF binding to its specific receptor site. This ability to inhibit the PAF binding to its specific receptor binding site on rabbit platelet plasma membranes was measured by an assay recently developed by us.
The inhibition of H^3 -PAF binding to the rabbit platelet plasma membrane by a PAF antagonist of Formula (I) was determined by isotopic labeling and filtration techniques. Generally, a series of Tris-buffered solutions of the selected antagonist at predetermined concentrations were prepared. Each of these solutions contains 1 pmole of ^3 H-PAF, a known amount of the test antagonist, and a sufficient amount of the pH 7.5 Tris-buffer solution (10 mM Tris, 0.25% bovine serum albumin, and 150 mM NaCl per ml water) to make the final volume of 1 ml. After adding into a set of test tubes each with 100 μg of the platelet plasma membrane suspension (S. B. Hwang, et al., Biochemistry, Vol. 22, pp. 4756-4763, 1983) and one of the Tris-buffer solutions described above, the resulting mixture in each test tube was incubated at 0° C. for about one hour or until the reaction was complete. Two control samples, one of which (C1) contains all the ingredients described above except the antagonist and the other (C 2) contains C1 plus a 1000-fold excess of unlabeled PAF, were also prepared and incubated simultaneously with the test samples. After the incubation was completed, the contents of each test tube were filtered under vacuo through a Whatman GF/C fiberglass filter and the residue washed rapidly several times with a total of 20 ml cold (0°-5° C.) Tris-buffer solution. Each washed residue was then suspended in 10 ml scintillation solution (Aquasol 2, New England Nuclear, Conn.) and the radioactivity was counted in a Packard Tri-Carb 460CD Liquid Scintillation System. Defining the counts from a test sample as "Total binding with antagonist"; the counts from the control sample C1, as "Total binding C1 "; and the counts from the control sample C2 as "non-specific binding C2 ", the percent inhibition of each test antagonist can be determined by the following equation: [formula]

T1 sequence (G1TEI7 1-342): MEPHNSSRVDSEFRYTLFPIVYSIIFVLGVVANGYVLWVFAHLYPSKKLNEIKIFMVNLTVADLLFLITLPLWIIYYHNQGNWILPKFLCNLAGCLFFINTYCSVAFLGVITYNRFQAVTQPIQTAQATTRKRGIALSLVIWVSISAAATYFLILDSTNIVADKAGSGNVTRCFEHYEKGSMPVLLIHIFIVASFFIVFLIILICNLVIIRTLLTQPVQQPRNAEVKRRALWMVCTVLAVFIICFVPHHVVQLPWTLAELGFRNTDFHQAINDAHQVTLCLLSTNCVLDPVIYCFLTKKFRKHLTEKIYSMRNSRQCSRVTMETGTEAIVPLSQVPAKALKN

| Structure (SMILES) | IC50 [nM] |
| --- | --- |
| C#CCOC1[C@H](c2cc(OC)c(OC)c(OC)c2)CC[C@H]1c1cc(OC)c(OC)c(OC)c1 (relative stereo) | 1 |
| CCOC(=O)COC1[C@H](c2cc(OC)c(OC)c(OC)c2)CC[C@H]1c1cc(OC)c(OC)c(OC)c1 (relative stereo) | 3.6 |
| C=CCOC1[C@H](c2cc(OC)c(OC)c(OC)c2)CC[C@H]1c1cc(OC)c(OC)c(OC)c1 (relative stereo) | 4.8 |
| COc1cc([C@@H]2CC[C@@H](c3cc(OC)c(OC)c(OC)c3)C2OCC2CC2)cc(OC)c1OC (relative stereo) | 19 |
| CCOC1[C@H](c2cc(OC)c(OC)c(OC)c2)CC[C@H]1c1cc(OC)c(OC)c(OC)c1 (relative stereo) | 30 |
| CCCOC1[C@H](c2cc(OC)c(OC)c(OC)c2)CC[C@H]1c1cc(OC)c(OC)c(OC)c1 (relative stereo) | 30 |
| COCCOC1[C@H](c2cc(OC)c(OC)c(OC)c2)CC[C@H]1c1cc(OC)c(OC)c(OC)c1 (relative stereo) | 100 |
| COc1cc([C@@H]2CC[C@@H](c3cc(OC)c(OC)c(OC)c3)C2OCCN(C)C)cc(OC)c1OC (relative stereo) | 100 |
| COc1cc([C@@H]2CC[C@@H](c3cc(OC)c(OC)c(OC)c3)C2OC(C)=O)cc(OC)c1OC (relative stereo) [OCOCH3, 1α-acetoxy-2α,5β-bis(3,4,5-trimethoxypheny)cyclopentane] | 100 |

Further lines, results first:

| IC50 [nM] | Structure (SMILES) |
| --- | --- |
| 20 | COc1cc([C@@H]2CC[C@@H](c3cc(OC)c(OC)c(OC)c3)C2)cc(OC)c1OC (relative stereo) [H, 1α,3β-bis(3,4,5-trimethoxyphenyl)cyclopentane] |
| 5 | CON=C1[C@@H](c2cc(OC)c(OC)c(OC)c2)CC[C@@H]1c1cc(OC)c(OC)c(OC)c1 (relative stereo) [NOCH3, Trans-2,5-bis(3,4,5-trimethoxyphenyl)cyclopentanone-O-methyloxime] |
| 5.8 | COc1cc([C@H]2CC[C@H](c3cc(OC)c(OC)c(OC)c3)C2=NO)cc(OC)c1OC (relative stereo) [NOH, trans-2,5-bis(3,4,5-trimethoxyphenyl)cyclopentanone oxime] |
| 48 | COc1cc([C@@H]2CC[C@@H](c3cc(OC)c(OC)c(OC)c3)C2OCc2ccccc2)cc(OC)c1OC (relative stereo) [OCH2 C6 H5] |
| 8.3 | COc1cc([C@@H]2CC[C@@H](c3cc(OC)c(OC)c(OC)c3)C2OC)cc(OC)c1OC (relative stereo) [OCH3, 1α-Methoxy-2α,5β-bis-(3,4,5-trimethoxyphenyl)cyclopentane] |

Same assay, conditions: Table (A), at 300 nM, read-out: PAF Receptor Binding Inhibition, Percent Inhibition

| inhibition at 0.3 µM [%] | Structure (SMILES) |
| --- | --- |
| 23 | COc1cc([C@@H]2CC[C@@H](c3cc(OC)c(OC)c(OC)c3)C2OCC(=O)N(C)C)cc(OC)c1OC (relative stereo) |
| 16 | COc1cc([C@@H]2CC[C@@H](c3cc(OC)c(OC)c(OC)c3)C2OCC(=O)O)cc(OC)c1OC (relative stereo) |

Same assay, conditions: Table (A), at 500 nM, read-out: PAF Receptor Binding Inhibition, Percent Inhibition

| inhibition at 0.5 µM [%] | Structure (SMILES) |
| --- | --- |
| 84 | COc1cc([C@@H]2CC[C@@H](c3cc(OC)c(OC)c(OC)c3)C2O)cc(OC)c1OC (relative stereo) [OH, trans-2,5-bis(3,4,5-trimethoxyphenyl)cyclopentanol] |

Same assay, conditions: Table (B), 3H-PAF, pH 7.5, 0° C.

| IC50 | Structure (SMILES) |
| --- | --- |
| 124 nM and 47 nM | CCCOc1c(OC)cc([C@H]2CC[C@H](c3cc(OC)c(OC)c(OC)c3)[C@@H]2OC)cc1C(N)=O (relative stereo) [OCH3, (CO)NH2] |
| 47 nM | CCCOc1c(Br)cc([C@@H]2CC[C@@H](c3cc(OC)c(OC)c(OC)c3)[C@H]2OC)cc1OC (relative stereo) [OCH3, Br] |
| 4.3 nM and 3.8 nM | CCCOc1c(OC)cc([C@@H]2CC[C@@H](c3cc(OC)c(OC)c(OC)c3)[C@@H]2OC)cc1S(C)(=O)=O (relative stereo) [OCH3, SO2 CH3] |
| 18 nM and 9.3 nM | CCCOc1c(OC)cc([C@@H]2CC[C@@H](c3cc(OC)c(OC)c(OC)c3)[C@@H]2OC)cc1[S+](C)[O-] (relative stereo) [OCH3, SOCH3] |

Same assay, conditions: Table (B), at 300 nM, 0.3 µM

| PAF Receptor Binding Inhibition, Percent Inhibition [%] | Structure (SMILES) |
| --- | --- |
| 38 | CCCOc1c(OC)cc([C@@H]2CC[C@@H](c3cc(OC)c(OC)c(OC)c3)[C@@H]2O)cc1SC (relative stereo) [OH, SCH3] |

Same assay, conditions: Table (B), at 300 nM, read-out: PAF Receptor Binding Inhibition, Percent Inhibition

| inhibition at 0.3 µM [%] | Structure (SMILES) |
| --- | --- |
| 23 | CCCOc1c(OC)cc([C@@H]2CC[C@@H](c3cc(OC)c(OC)c(OC)c3)[C@@H]2O)cc1SC (relative stereo) [OH, SCH3] |
